Experimental data reported in patent publication US20150039274A1, “SYSTEM AND METHOD FOR PERSONALIZED METABOLIC MODELING” (Ramot at Tel-Aviv University Ltd., priority 2013, published 2015).

System: RPMI-8226 cells
Assay: Cell proliferation of RPMI-8226 cells with doxycycline-inducible MLYCD shRNA, with or without N-acetyl-cysteine
Format: cell-based, human
Settings: RPMI-8226 shRNA cells; 2 mM N-Acetyl Cysteine
Protocol: HapMap cells (GM06997, CEPH/UTAH pedigree 13291) were obtained from Coriell Institute and RPMI-8226 and K562 cells were obtained from NCI-Frederick Cancer DCTD Tumor/Cell line Repository. Cells were grown in RPMI 1640 plus 10% fetal bovine serum (FBS) in the presence of 5% carbon dioxide. Cell count was determined using a CASY Cell Counter (Roche Applied Science). Where indicated, cells were incubated with 2 mM N-acetyl-cysteine.
The viral supernatant for infection was obtained from the filtered growth media of the packaging cells HEK293T transfected with 3 μg psPAX, 1 μg pVSVG, 4 μg of shRNA contructs and 24 μl Lipofectamine 2000 (Life Technology) and the relevant shRNAs. 5×10^5 cells were then plated on 6-well plates and infected with the viral supernatant in the presence of 4 μg/mL polybrene. After two days, the medium was replaced with selection medium containing 2 μg/mL puromycin.
The expression of the shRNA constructs was induced by incubating cells with 2 μg/mL Doxycyclin.

## CC(=O)N[C@@H](CS)C(=O)O [N-Acetyl-cysteine]
  cell proliferation of MLYCD-deficient cells in the presence of antioxidant: restored the proliferative defects
